Experimental data taken from PMC6321543, “Cloning, Characterization and Anion Inhibition Studies of a β-Carbonic Anhydrase from the Pathogenic Protozoan Entamoeba histolytica” (Molecules, 2018).
Like-named read-outs stand apart in the source and are kept apart here.

Molecular target: T1, EhiCA (Entamoeba histolytica, UniProt C4LXK3)
T1 construct: gene EHI_073380; His-tag cleaved with thrombin; 21 kDa (21/25 kDa doublet); one Zn per chain; Zn ligands Cys50, His103, Cys106, dyad Asp52-Arg54; dimer and trimer seen on SDS-PAGE
T1 sequence (C4LXK3 1-188): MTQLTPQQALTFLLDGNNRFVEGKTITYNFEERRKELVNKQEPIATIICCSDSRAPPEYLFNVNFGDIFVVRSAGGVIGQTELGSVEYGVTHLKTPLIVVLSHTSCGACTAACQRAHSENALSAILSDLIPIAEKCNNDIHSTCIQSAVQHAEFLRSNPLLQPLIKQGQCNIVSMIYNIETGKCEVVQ
Assay: biochemical

Row | Compound | Ki (read-out: KI [mM] ^#) | also measured
1 | F[B-](F)(F)F [BF4^−] | > 100 mM | –
2 | Br [Br^−] | 36.8 mM | –
3 | O=S(=O)(O)C(F)(F)F [CF3SO3^−] | > 100 mM | –
4 | N#CO [CNO^−] | 0.77 mM | –
5 | S=C(S)S [CS3^2−] | 6 mM | –
6 | [O-][Cl+3]([O-])([O-])O [ClO4^−] | > 100 mM | –
7 | Cl [Cl^−] | > 100 mM | –
8 | CCN(CC)C(=S)S [Et2NCS2^−] | 0.51 mM | –
9 | O=S(=O)(O)F [FSO3^−] | 0.086 mM | –
10 | F [F^−] | > 100 mM | –
11 | NS(N)(=O)=O [H2NSO2NH2] | 0.028 mM | –
12 | NS(=O)(=O)O [H2NSO3H] | > 100 mM | –
13 | O=S(O)O [HSO3^−] | 11.5 mM | –
14 | S [HS^−] | 6.9 mM | –
15 | I [I^−] | – | Ki: 7.4 mM
16 | O=S(=O)(O)NS(=O)(=O)O [NH(SO3)2^2−] | 2.2 mM | –
17 | O=NO [NO2^−] | 1.7 mM | –
18 | O=[N+]([O-])O [NO3^−] | 3.6 mM | –
19 | O=P(O)(O)OP(=O)(O)O [P2O7^4−] | – | Ki: > 100 mM
20 | F[P-](F)(F)(F)(F)F [PF6^−] | – | Ki (CO2 hydration, TRIS pH 8.3, 20 °C (methods: 25 °C), 0.1 M NaClO4, 15 min pre-incubation, as sodium salt, read-out: KI [mM] ^#): > 100 mM
21 | OB(O)c1ccccc1 [Ph-B(OH)2] | 0.047 mM | –
22 | [O]=[Re](=[O])(=[O])[OH] [ReO4^−] | 7.1 mM | –
23 | [O]=[Ru](=[O])(=[O])[OH] [RuO4^−] | 7 mM | –
24 | O=S(=O)(O)OOS(=O)(=O)O [S2O8^2−] | 8.4 mM | –
25 | N#CS [SCN^−] | – | Ki: 7.9 mM
26 | O=S(=O)(O)O [SO4^2−] | – | Ki: 21.6 mM
27 | N#C[SeH] [SeCN^−] | 0.87 mM | –
28 | O=[Se](=O)(O)O [SeO4^2−] | 6 mM | –
29 | O=[Te](=O)(O)O [TeO4^2−] | 0.61 mM | –
30 | [O]=[V]([OH])([OH])[O][V](=[O])([OH])[OH] [V2O7^4−] | > 100 mM | –
